Measurements from PMC7571155, “Design, Synthesis and Biological Investigation of Flavone Derivatives as Potential Multi-Receptor Atypical Antipsychotics” (Molecules, 2020).

Tests used:
[1] = target: T1, 5-HT2A receptor (Homo sapiens, UniProt P28223); test: Intrinsic activity, FLIPR calcium assay, HEK293/5-HT2A; type: cell-based; settings: for inhibition at 10 µM: HEK293, read-out: Inhibition (10 μM, %), 5-HT2A, antagonist mode, 10 μM, n = 3
T1 construct: expressed in transfected cells; host or cells: HEK293
T1 sequence (P28223 whole entry): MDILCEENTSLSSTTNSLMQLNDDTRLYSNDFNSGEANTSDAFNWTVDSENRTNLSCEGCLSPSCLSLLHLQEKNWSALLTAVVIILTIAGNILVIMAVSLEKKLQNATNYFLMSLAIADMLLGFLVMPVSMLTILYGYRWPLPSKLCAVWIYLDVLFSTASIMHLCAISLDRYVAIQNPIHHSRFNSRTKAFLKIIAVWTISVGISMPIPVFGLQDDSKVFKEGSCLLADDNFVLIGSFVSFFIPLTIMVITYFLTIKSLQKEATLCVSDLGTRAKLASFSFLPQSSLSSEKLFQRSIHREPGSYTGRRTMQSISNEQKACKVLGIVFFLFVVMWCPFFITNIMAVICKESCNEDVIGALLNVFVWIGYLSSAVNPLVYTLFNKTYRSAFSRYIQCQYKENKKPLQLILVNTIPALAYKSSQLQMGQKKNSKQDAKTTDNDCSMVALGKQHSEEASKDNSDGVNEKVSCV

[2] = system: MK-801-induced hyperactivity in mice; test: MK-801-induced hyperactivity; type: in vivo; settings: Mus musculus, po, MK-801 0.3 mg/kg sc, read-out: MK-80: MK-801-induced hyperactivity ED50
Protocol: Apomorphine-Induced Climbing [1-3].
Animals were placed in Plexiglas cages
for evaluating locomotor activity.
5.3 Catalepsy Test [1-3].
Catalepsy was evaluated on a metal
(§1) A mean immobility score of 30 s was used
(§2) as the criterion for the presence of catalepsy.

[3] = in vivo; settings: mouse, po
[4] = system: APO-induced climbing in mice; test: Apomorphine-induced climbing; type: in vivo; settings: Mus musculus, po, apomorphine 1.0 mg/kg sc
Protocol: Apomorphine-Induced Climbing [1-3].
Animals were placed in Plexiglas cages
for evaluating locomotor activity.
5.3 Catalepsy Test [1-3].
Catalepsy was evaluated on a metal
as §1, §2

[5] = target: α1 receptor; test: α1 receptor radioligand binding (3H-prazosin); settings: rat cerebral cortex, mean ± SEM of three experiments, read-out: Receptor Affinity Ki ± SEM α1
[6] = target: D2 receptor (Rattus norvegicus, UniProt P61169); test: D2 receptor radioligand binding (3H-spiperone); settings: for Ki: Receptor Affinity Ki ± SEM D2, rat striatum, 3H-spiperone, mean ± SEM of three experiments; for potency ratio between D2 and 5-HT1A, 5-HT2A: ratio of Ki values
D2 receptor, sequence (P61169 whole entry): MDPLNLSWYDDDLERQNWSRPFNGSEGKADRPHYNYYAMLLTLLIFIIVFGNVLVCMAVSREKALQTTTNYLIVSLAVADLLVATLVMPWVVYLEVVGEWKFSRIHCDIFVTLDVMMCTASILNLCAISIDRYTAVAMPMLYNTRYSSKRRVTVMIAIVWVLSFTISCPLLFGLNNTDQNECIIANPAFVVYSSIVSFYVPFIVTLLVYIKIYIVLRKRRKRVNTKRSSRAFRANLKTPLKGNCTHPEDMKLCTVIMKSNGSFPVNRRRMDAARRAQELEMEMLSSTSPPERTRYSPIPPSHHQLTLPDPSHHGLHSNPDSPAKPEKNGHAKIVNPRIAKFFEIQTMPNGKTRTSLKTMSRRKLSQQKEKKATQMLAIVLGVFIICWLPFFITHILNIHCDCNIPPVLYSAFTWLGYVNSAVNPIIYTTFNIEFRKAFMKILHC

[7] = target: hERG potassium channels (Homo sapiens, UniProt Q12809); test: hERG potassium channel block, patch clamp in HEK cells
hERG potassium channels, sequence (Q12809 whole entry): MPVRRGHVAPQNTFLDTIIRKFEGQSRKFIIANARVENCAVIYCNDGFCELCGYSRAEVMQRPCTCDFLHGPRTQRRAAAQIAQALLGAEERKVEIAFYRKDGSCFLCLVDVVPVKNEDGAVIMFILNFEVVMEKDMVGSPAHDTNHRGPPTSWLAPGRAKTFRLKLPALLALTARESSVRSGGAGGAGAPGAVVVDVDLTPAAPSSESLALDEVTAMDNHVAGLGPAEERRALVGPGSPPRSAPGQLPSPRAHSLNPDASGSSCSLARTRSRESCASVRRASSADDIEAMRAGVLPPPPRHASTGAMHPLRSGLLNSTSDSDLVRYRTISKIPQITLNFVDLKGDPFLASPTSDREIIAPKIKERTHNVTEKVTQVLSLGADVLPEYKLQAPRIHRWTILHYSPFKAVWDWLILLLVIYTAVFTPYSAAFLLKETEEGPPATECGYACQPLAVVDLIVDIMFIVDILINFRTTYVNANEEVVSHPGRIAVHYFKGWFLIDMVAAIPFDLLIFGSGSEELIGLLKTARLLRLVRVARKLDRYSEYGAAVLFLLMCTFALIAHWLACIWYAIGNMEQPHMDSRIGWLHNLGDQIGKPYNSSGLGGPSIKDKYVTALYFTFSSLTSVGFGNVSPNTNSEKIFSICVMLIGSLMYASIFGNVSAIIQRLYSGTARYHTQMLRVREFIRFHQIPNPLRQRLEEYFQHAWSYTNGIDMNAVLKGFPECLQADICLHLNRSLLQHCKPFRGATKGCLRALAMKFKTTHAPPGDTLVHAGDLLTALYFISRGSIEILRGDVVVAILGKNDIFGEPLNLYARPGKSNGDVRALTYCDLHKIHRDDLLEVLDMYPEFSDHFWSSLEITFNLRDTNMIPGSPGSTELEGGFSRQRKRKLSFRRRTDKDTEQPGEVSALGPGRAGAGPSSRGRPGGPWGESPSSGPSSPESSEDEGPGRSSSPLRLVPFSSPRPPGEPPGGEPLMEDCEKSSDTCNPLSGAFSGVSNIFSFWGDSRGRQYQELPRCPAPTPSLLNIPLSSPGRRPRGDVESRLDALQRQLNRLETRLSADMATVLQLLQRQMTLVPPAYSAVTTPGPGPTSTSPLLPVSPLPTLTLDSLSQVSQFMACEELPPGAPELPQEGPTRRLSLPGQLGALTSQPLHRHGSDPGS

[8] = target: H1 receptor (Cavia porcellus, UniProt P31389); test: H1 receptor radioligand binding (3H-mepyramine); settings: guinea pig cerebellum, mean ± SEM of three experiments, read-out: Receptor Affinity Ki ± SEM H1
H1 receptor, sequence (P31389 whole entry): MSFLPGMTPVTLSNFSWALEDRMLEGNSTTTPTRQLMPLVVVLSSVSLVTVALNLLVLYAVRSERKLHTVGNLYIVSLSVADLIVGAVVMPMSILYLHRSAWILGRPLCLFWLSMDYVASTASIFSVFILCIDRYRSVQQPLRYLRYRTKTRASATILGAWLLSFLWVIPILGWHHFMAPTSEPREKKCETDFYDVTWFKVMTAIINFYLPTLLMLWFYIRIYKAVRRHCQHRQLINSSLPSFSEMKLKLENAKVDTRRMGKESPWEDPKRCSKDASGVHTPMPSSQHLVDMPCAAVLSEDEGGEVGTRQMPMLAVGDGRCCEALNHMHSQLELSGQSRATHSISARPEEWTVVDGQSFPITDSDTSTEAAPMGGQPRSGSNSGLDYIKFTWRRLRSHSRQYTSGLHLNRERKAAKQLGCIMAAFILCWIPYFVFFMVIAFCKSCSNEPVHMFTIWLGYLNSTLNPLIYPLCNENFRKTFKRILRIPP

[9] = target: D3 receptor (Rattus norvegicus, UniProt P19020); test: D3 receptor radioligand binding (3H-7-OH-DPAT)
D3 receptor (Rattus norvegicus, UniProt P19020), sequence (P19020 whole entry): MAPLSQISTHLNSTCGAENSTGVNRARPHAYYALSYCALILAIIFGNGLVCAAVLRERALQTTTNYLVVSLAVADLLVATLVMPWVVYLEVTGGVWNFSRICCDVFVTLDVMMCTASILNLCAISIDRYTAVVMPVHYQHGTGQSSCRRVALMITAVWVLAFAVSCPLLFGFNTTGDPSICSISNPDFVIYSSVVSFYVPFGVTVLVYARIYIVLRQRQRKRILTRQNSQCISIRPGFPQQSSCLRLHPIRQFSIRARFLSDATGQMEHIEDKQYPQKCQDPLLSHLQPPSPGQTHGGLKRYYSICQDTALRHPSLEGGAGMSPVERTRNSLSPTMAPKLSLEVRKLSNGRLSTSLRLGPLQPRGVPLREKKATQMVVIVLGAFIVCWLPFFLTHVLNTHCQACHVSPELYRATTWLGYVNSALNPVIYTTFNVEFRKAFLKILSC

[10] = target: T2, 5-HT2C receptor (Rattus norvegicus, UniProt P08909); test: 5-HT2C receptor radioligand binding (3H-mesulergine); settings: rat brain cortex, mean ± SEM of three experiments, read-out: Receptor Affinity Ki ± SEM 5-HT2C
T2 sequence (P08909 33-460): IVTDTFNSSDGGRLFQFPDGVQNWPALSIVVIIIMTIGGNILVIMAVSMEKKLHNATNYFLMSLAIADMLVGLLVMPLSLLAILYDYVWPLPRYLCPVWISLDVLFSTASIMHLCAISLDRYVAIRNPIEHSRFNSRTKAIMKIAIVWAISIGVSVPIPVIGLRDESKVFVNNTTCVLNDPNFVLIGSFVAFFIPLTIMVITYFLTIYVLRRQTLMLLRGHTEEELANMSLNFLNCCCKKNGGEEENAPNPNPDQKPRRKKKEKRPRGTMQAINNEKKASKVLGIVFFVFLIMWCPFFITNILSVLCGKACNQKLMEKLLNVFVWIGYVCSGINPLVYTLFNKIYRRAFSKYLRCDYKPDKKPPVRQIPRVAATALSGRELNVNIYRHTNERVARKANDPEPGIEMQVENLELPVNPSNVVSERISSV

[11] = target: 5-HT2A receptor (Rattus norvegicus, UniProt P14842); test: 5-HT2A receptor radioligand binding (3H-ketanserin); settings: Receptor Affinity Ki ± SEM 5-HT2A
5-HT2A receptor (Rattus norvegicus, UniProt P14842), sequence (P14842 whole entry): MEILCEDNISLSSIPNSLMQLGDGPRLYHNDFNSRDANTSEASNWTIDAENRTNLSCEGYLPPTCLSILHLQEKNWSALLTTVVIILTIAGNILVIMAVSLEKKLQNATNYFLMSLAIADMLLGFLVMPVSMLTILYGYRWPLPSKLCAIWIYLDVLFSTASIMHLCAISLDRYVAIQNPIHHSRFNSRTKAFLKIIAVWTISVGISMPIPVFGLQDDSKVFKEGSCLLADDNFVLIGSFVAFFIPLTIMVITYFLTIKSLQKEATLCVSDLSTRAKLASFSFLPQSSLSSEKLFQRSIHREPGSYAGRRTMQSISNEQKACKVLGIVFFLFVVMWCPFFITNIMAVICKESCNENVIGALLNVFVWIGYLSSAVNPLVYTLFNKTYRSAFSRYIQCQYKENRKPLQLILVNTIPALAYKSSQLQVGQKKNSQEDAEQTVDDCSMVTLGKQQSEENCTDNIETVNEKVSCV

[12] = target: T3, 5-HT1A receptor (Homo sapiens, UniProt P08908); test: Intrinsic activity, FLIPR calcium assay, HEK293/5-HT1A; type: cell-based; settings: antagonist mode
T3 construct: expressed in transfected cells; host or cells: HEK293
T3 sequence (P08908 1-422): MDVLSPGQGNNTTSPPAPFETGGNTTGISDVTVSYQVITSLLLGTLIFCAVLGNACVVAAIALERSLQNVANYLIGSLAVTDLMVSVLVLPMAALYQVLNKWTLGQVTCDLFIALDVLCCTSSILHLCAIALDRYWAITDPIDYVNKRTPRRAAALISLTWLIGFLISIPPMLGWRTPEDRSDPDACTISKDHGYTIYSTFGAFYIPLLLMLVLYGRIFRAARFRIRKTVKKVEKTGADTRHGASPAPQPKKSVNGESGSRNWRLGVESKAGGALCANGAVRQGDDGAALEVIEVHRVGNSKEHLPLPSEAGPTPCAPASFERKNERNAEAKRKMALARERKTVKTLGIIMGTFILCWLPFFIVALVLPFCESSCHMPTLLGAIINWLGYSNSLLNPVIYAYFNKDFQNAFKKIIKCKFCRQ

[13] = in vivo; settings: mouse
[14] = target: T4, D2L receptor (Homo sapiens, UniProt P14416); test: Intrinsic activity, FLIPR calcium assay, HEK293/D2L; type: cell-based
T4 construct: expressed in transfected cells; host or cells: HEK293
T4 sequence (P14416 whole entry): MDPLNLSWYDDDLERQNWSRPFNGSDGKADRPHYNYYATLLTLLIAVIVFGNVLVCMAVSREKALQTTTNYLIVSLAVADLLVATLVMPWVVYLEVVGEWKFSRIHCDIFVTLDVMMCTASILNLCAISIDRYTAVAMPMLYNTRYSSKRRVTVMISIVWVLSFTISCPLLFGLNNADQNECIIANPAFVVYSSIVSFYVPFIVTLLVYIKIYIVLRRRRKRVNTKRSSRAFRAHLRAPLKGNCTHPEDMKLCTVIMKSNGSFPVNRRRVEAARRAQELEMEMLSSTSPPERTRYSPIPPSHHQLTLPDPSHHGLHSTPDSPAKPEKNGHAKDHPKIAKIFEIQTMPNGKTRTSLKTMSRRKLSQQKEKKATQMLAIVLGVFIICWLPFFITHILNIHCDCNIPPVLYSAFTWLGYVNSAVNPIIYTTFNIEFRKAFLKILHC

[15] = target: T5, D3 receptor (Homo sapiens, UniProt P35462); test: Intrinsic activity, FLIPR calcium assay, HEK293/ACTOne D3; type: cell-based
T5 construct: expressed in transfected cells; host or cells: HEK293/ACTOne
T5 sequence (P35462 whole entry): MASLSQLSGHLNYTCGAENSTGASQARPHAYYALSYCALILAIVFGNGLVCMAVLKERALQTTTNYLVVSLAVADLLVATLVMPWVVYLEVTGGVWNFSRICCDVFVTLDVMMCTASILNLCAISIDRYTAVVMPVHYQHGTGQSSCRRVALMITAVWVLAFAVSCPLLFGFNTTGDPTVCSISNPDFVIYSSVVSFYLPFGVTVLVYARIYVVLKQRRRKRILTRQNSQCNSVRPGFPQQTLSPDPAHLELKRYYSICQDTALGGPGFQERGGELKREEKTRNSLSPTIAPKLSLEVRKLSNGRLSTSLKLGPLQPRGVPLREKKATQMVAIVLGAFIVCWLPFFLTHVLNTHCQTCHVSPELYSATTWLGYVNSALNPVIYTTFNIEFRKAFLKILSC

[16] = rat brain cortex, 3H-ketanserin, mean ± SEM of three experiments

Row | Compound | inhibition at 10 µM [1] [%] | ED50 [2] [mg/kg] | ED50 [3] [mg/kg] | ED50 [4] [mg/kg] | Ki [5] [µM] | melting point [°C] | Ki [6] [µM] | potency ratio between D2 and 5-HT1A, 5-HT2A [6] | IC50 [7] [µM] | Ki [8] [µM] | Ki [9] [µM] | Ki [10] [µM] | Ki [11, 16] [µM] | further results
1 | O=C(c1ccc(F)cc1)C1CCN(CCn2c(=O)[nH]c3ccccc3c2=O)CC1 [ketanserin, reference compound] | 98.2 ± 2.6 |  |  |  |  |  |  |  |  |  |  |  |  | 
2 | CN1CCN(C2=Nc3cc(Cl)ccc3Nc3ccccc32)CC1 [Clozapine, reference compound] |  | 2.28 | 50 | 17.9 |  |  |  |  |  |  |  |  |  | 
3 | O=C1CC2(CCCCC2)Oc2cc(OCCCN3CCC(c4noc5cc(F)ccc45)CC3)ccc21 [Compound 9g, 7-(3-(4-(6-Fluorobenzo[d]isoxazol-3-yl)piperidin-1-yl)propoxy)spiro[chromane-2,1′-cyclohexan]-4-one] |  |  |  |  | 0.138 ± 0.0398 | 96 to 98 | 0.0184 ± 0.0018 | less than 5 | 3.02 ± 0.291 | 0.909 ± 0.0785 | 0.0352 ± 0.0028 | 0.401 ± 0.0556 | 0.0091 ± 0.0011 | 
4 | CC1(C)CC(=O)c2ccc(OCCCCN3CCC(c4noc5cc(F)ccc45)CC3)cc2O1 [Compound 6j, 7-(4-(4-(6-Fluorobenzo[d]isoxazol-3-yl)piperidin-1-yl)butoxy)-2,2-dimethylchroman-4-one] | > 90 | 0.16 | 56.8 | 0.19 | 0.237 ± 0.0864 |  | 0.0121 ± 0.0015 |  | 3.77 ± 0.298 | 0.939 ± 0.101 | 0.0254 ± 0.0031 | 0.566 ± 0.0754 |  | IC50 ([12]; 5-HT1A): 0.201 µM; inhibition at 10 µM ([12]; HEK293, 5-HT1A, 10 μM, n = 3): > 90%; LD50 at 24 h [13]: > 2000 mg/kg; IC50 [14]: 0.0089 µM; inhibition at 10 µM ([14]; HEK293, read-out: Inhibition (10 μM, %), D2L, antagonist mode, 10 μM, n = 3): > 90%; ED50 ([3]; Kun Ming (KM)): 58.4 mg/kg; IC50 [1]: 0.195 µM; IC50 [15]: 0.0315 µM; inhibition at 10 µM ([15]; HEK293, read-out: Inhibition (10 μM, %), D3, antagonist mode, 10 μM, n = 3): > 90%; Ki [11]: 0.0032 ± 0.0004 µM
5 | O=C1CC2(CCCCC2)Oc2cc(OCCCCN3CCC(c4noc5cc(F)ccc45)CC3)ccc21 [Compound 9h, 7-(4-(4-(6-Fluorobenzo[d]isoxazol-3-yl)piperidin-1-yl)butoxy)spiro[chromane-2,1′-cyclohexan]-4-one] |  |  |  |  | 0.102 ± 0.0506 |  | 0.017 ± 0.0023 |  | 3.98 ± 0.411 | 0.819 ± 0.0918 | 0.0386 ± 0.0037 | 0.528 ± 0.0685 | 0.0073 ± 0.0004 | 
6 | O=C1CC2(CCCC2)Oc2cc(OCCCCN3CCC(c4noc5cc(F)ccc45)CC3)ccc21 [Compound 9d, 7-(4-(4-(6-Fluorobenzo[d]isoxazol-3-yl)piperidin-1-yl)butoxy)spiro[chromane-2,1′-cyclopentan]-4-one] |  |  |  |  | 0.162 ± 0.0571 | 103 to 105 | 0.0157 ± 0.0019 | less than 5 | 3.38 ± 0.352 | 0.784 ± 0.0983 | 0.0426 ± 0.0053 | 0.426 ± 0.0478 | 0.0085 ± 0.0007 | 
